Measured values as given in patent publication US9718792B2, “Isoxazoline hydroxamic acid derivatives as LpxC inhibitors” (priority 2014, dated 2017).
Converted amounts (≈) assume the structure as drawn. Like-named read-outs stand apart in the source and are kept apart here.

Assays:
P. aeruginosa PAO1 = assay: Susceptibility Testing (MIC, broth microdilution); type: cell-based, Pseudomonas aeruginosa; settings: Pseudomonas aeruginosa, PAO1, 20 h, read-out: PAO1 MIC
Protocol: Bacterial isolates were cultivated from −70° C. frozen stocks by two consecutive overnight passages at 35° C. in ambient air on 5% blood agar (Remel, Lenexa, Kans.). Quality control and P. aeruginosa ATCC 27853) is from the American Type Culture Collection (ATCC; Rockville, Md.) and PAO1 was received from Dr. K. Poole.
Minimal Inhibitory Concentrations (MICs) were determined by the broth microdilution method in accordance with Clinical and Laboratories Institute (CLSI) guidelines. In brief, fresh bacterial overnight cultures were resuspended in sterile saline, adjusted to a 0.5 McFarland turbidity standard and then diluted […] in cation adjusted Mueller-Hinton Broth II (MHB; Remel BBL) to yield a final inoculum of approximately 5×10^5 colony-forming units (CFU)/mL. Two-fold serial dilutions of compounds were prepared in 100% dimethyl sulfoxide (DMSO) at 100-fold the highest final assay concentration; the resulting dilution series of compounds were diluted 1:10 with sterile water. Ten μl of the drug dilution series in 10% DMSO was transferred to microtiter wells and 90 μl of bacterial suspension was inoculated into the wells. All inoculated microdilution trays were incubated in ambient air at […] for 20 hours. Following incubation, assay plates were read in a microtiter plate reader at 600 nm and visually inspected to confirm the MIC endpoint well with the OD value. The lowest concentration of the compound that prevented visible growth was recorded as the MIC. Performance of the assay was monitored by testing ciprofloxacin against laboratory quality control strains in accordance with guidelines of the CLSI.

P. aeruginosa LpxC = P. aeruginosa LpxC (Pseudomonas aeruginosa (strain ATCC 15692 / DSM 22644 / CIP 104116 / JCM 14847 / LMG 12228 / 1C / PRS 101 / PAO1), UniProt P47205); assay: P. aeruginosa LpxC Inhibition Assay; type: biochemical; settings: 1 nM P. aeruginosa LpxC, 2 μM substrate, LC-MS/MS; read-out: PA LpxC IC50
Source text: The P. aeruginosa LpxC protein is produced according to the general method of Hyland et al (Journal of Bacteriology 1997 179, 2029-2037: Cloning, expression and purification of UDP-3-O-acyl-GIcNAc deacetylase from Pseudomonas aeruginosa: a metalloamidase of the lipid A biosynthesis pathway). The LC-MS/MS method for quantitation of LpxC product was developed using an Agilent 1200 Capillary HPLC system coupled to an Applied Biosystems MDS Sciex 4000QTRAP mass spectrometer. Both instruments are controlled using the Applied Biosystems MDS Sciex Analyst software. LpxC reaction product (UDP-3-O—(R-3-hydroxyacyl)-glucosamine) was produced by hydrolysis of LpxC substrate catalyzed by P.a. LpxC and purified using reversed phase chromatography on a Phenomenex Luna C18(2) 4.6×50 mm column. An LpxC product calibration curve was generated to evaluate the sensitivity and dynamic range of the LC-MS/MS method. Briefly, compounds are pre-incubated with 1 nM P. aeruginosa LpxC for 30 min. at room temperature. Reactions are initiated by the addition of 2 μM UDP-3-O—(R-3-hydroxydecanoyl)-GIcNAc. Reactions are conducted in a 384-well plate with a total volume of 50 μL in each well containing 50 mM Sodium phosphate pH 7.5, 0.005% Trition X-100 for 20 min at room temperature. After quenching with 1.8% HOAc (5 μL of a 20% HOAc added to each well), reaction mixtures are analyzed using the LC-MS/MS method and peak areas are transformed into product concentration using a LpxC product calibration curve. Total activity (0% inhibition control) is obtained from reactions with no inhibitors and 100% inhibition control is the background using quenched samples before reaction starts. For IC50 determinations, peak areas are converted to percent inhibition in Microsoft Excel. Percent inhibition values are plotted vs. log compound concentration using XLfit. Data is fit to the four-parameter logistic equation using the non-linear regression algorithm in XLfit to return the IC50 and hill slope values.

[1] = P. aeruginosa PAO1, broth microdilution, 20 hours

Row | SMILES | MIC (P. aeruginosa PAO1; [1]) | IC50 (P. aeruginosa LpxC) | MIC (P. aeruginosa PAO1)
1 | CCCc1ccc(C2=NO[C@@H](C[C@](C)(C(=O)NO)S(C)(=O)=O)C2)cc1 [Compound 23, (R)—N-hydroxy-2-methyl-2-(methylsulfonyl)-3-((R)-3-(4-propylphenyl)-4,5-dihydroisoxazol-5-yl)propanamide] | 0.5 µg/mL (≈ 1.36 µM) | < 0.5 nM | 
2 | C[C@@](C[C@H]1CC(c2ccc(CCCF)cc2)=NO1)(C(=O)NO)S(C)(=O)=O [Compound 33, (R)-3-((R)-3-(4-(3-fluoropropyl)phenyl)-4,5-dihydroisoxazol-5-yl)-N-hydroxy-2-methyl-2-(methylsulfonyl) propanamide] |  | 2 nM | 0.5 µg/mL (≈ 1.29 µM)
3 | C[C@@H](O)Cc1cc(F)c(-c2ccc(C3=NO[C@@H](C[C@](C)(C(=O)NO)S(C)(=O)=O)C3)cc2F)c(F)c1 [Compound 116, (R)—N-hydroxy-2-methyl-2-(methylsulfonyl)-3-((R)-3-(2,2′,6′-trifluoro-4′-((R)-2-hydroxypropyl)-[1,1′-biphenyl]-4-yl)-4,5-dihydroisoxazol-5-yl) propanamide] | 0.5 µg/mL (≈ 0.972 µM) | < 0.5 nM | 
4 | C[C@@](C[C@H]1CC(c2ccc(-c3ccc(-c4nn[nH]n4)cc3)c(F)c2)=NO1)(C(=O)NO)S(C)(=O)=O [Compound 114, (R)-3-((R)-3-(2-fluoro-4′-(2H-tetrazol-5-yl)-[1,1′-biphenyl]-4-yl)-4,5-dihydroisoxazol-5-yl)-N-hydroxy-2-methyl-2-(methylsulfonyl)propanamide] | 32 µg/mL (≈ 65.5 µM) | < 0.5 nM | 
5 | C[C@@](C[C@H]1CC(c2ccc(-c3ccncc3)cc2)=NO1)(C(=O)NO)S(C)(=O)=O [Compound 78, (R)-3-((R)-3-(4-(pyridin-4-yl)phenyl)-4,5-dihydroisoxazol-5-yl)-N-hydroxy-2-methyl-2-(methylsulfonyl)propanamide] | 1 µg/mL (≈ 2.48 µM) | < 0.5 nM | 
6 | C[C@@](C[C@H]1CC(c2ccc(-c3ccc([C@H](O)CO)cc3)cc2)=NO1)(C(=O)NO)S(C)(=O)=O [Compound 94, (R)-3-((R)-3-(4′-((S)-1,2-dihydroxyethyl)-[1,1′-biphenyl]-4-yl)-4,5-dihydroisoxazol-5-yl)-N-hydroxy-2-methyl-2-(methylsulfonyl)propanamide] | 0.25 µg/mL (≈ 0.541 µM) | < 0.5 nM | 
7 | CC(C)(C#N)c1ccc(-c2ccc(C3=NO[C@@H](C[C@](C)(C(=O)NO)S(C)(=O)=O)C3)cc2)cc1 [Compound 69, (R)-3-((R)-3-(4′-(2-cyanopropan-2-yl)-[1,1′-biphenyl]-4-yl)-4,5-dihydroisoxazol-5-yl)-N-hydroxy-2-methyl-2-(methylsulfonyl)propanamide] | 0.71 µg/mL (≈ 1.51 µM) | < 0.5 nM | 
8 | COc1ccc(-c2ccc(C3=NO[C@@H](C[C@](C)(C(=O)NO)S(C)(=O)=O)C3)cc2F)c(C)c1 [Compound 113, (R)-3-((R)-3-(2-fluoro-4′-methoxy-2′-methyl-[1,1′-biphenyl]-4-yl)-4,5-dihydroisoxazol-5-yl)-N-hydroxy-2-methyl-2-(methylsulfonyl)propanamide] | 0.71 µg/mL (≈ 1.53 µM) | < 0.5 nM | 
9 | COC[C@H](O)Cc1ccc(-c2ccc(C3=NO[C@@H](C[C@](C)(C(=O)NO)S(C)(=O)=O)C3)cc2)cc1 [Compound 60, (R)—N-hydroxy-3-((R)-3-(4′-((R)-2-hydroxy-3-methoxypropyl)-[1,1′-biphenyl]-4-yl)-4,5-dihydroisoxazol-5-yl)-2-methyl-2-(methylsulfonyl)propanamide] | 0.25 µg/mL (≈ 0.51 µM) | < 0.5 nM | 
10 | COC(CO)c1ccc(-c2ccc(C3=NO[C@@H](C[C@](C)(C(=O)NO)S(C)(=O)=O)C3)cc2)cc1 (stereo partly drawn) [Compound 75, (2R)—N-hydroxy-3-((5R)-3-(4′-(2-hydroxy-1-methoxyethyl)-[1,1′-biphenyl]-4-yl)-4,5-dihydroisoxazol-5-yl)-2-methyl-2-(methylsulfonyl)propanamidepropanamide] | 0.5 µg/mL (≈ 1.05 µM) | < 0.5 nM | 
11 | C[C@@](C[C@H]1CC(c2ccc(-c3ccc(CO)cc3)cc2)=NO1)(C(=O)NO)S(C)(=O)=O [Compound 41, (R)—N-hydroxy-3-((R)-3-(4′-(hydroxymethyl)-[1,1′-biphenyl]-4-yl)-4,5-dihydroisoxazol-5-yl)-2-methyl-2-(methylsulfonyl)] | 0.125 µg/mL (≈ 0.289 µM) | 0.5 nM | 
